Legend:
[1] = Reaction of Compound A powder with formaldehyde vapour, related substances by HPLC (Experiment 2); type: physicochemical; conditions: 50° C. for 14 days
Method: When Compound A powder (2 mg) was stored in a sealed stoppered glass test tube together with a cup containing an aqueous formaldehdye solution (1 ml) in various concentrations (see FIG. 2), and stored at 50° C. for 14 days, the generated amount of related substances of Compound A was measured. The generated amount of the related substances was measured by dissolving Compound A powder (2 mg) in methanol (200 ml) to give a test solution, and applying 10 μl thereof to high performance liquid chromatograph under the following conditions. The percentage ratio of the peak area of the related substances to the total peak area including that of Compound A was regarded as the generation amount thereof.
Conditions for High Performance Liquid Chromatograph:
Column: Develosil ODS-5 (inner diameter: 4.6 mm×150 mm, manufactured by NOMURA CHEMICAL CO., LTD.)
Mobile phase: Mixture of 0.01M citric acid buffer (pH 2.5):acetonitrile (75:25)
Detector: Ultraviolet-visible spectrophotometer (wave length for detection: 220 nm)
Temperature: Constant temperature around 40° C.

[2] = Absorption of aldehyde by stabilizer (Experiment 4); type: physicochemical; conditions: for Residual rate of formaldehyde in the cup: 25° C. for 2 days, 1 g meglumine powder enclosed
Method: Meglumine powder (1 g) was stored in a sealed stoppered glass test tube together with a cup containing an aqueous formaldehyde solution (2 ml) (containing potassium iodide for adjusting moisture) in various concentrations (see FIG. 4). For a comparative control, a cup containing an aqueous formaldehyde solution (2 ml) (containing potassium iodide for adjusting moisture) in various concentrations was put into a sealed stoppered glass test tube without meglumine. The test tubes were stored at 25° C. or 40° C. for 2 days, and the residual amount of formaldehyde in the cup was measured in a similar manner to Experiment 1.

Residual ratio of formaldehyde in the cup compared to without meglumine (in words) ([2]; after storage) | Residual rate of formaldehyde in the cup ([2]; formaldehyde 0.1 μg/ml) | Residual rate of formaldehyde in the cup ([2]; formaldehyde 0.5 μg/ml) | Residual rate of formaldehyde in the cup ([2]; formaldehyde 1 μg/ml) | Compound | Generated amount of related substances ([1]; aldehyde concentration in the cup: Not detected) | Generated amount of related substances ([1]; aqueous formaldehyde in the cup 0.0625 μg/ml) | Generated amount of related substances ([1]; aqueous formaldehyde in the cup 0.125 μg/ml) | Generated amount of related substances ([1]; aqueous formaldehyde in the cup 0.25 μg/ml) | Generated amount of related substances ([1]; aqueous formaldehyde in the cup 0.5 μg/ml) | Generated amount of related substances ([1]; aqueous formaldehyde in the cup 1.0 μg/ml)
– | – | – | – | C[C@H](Cc1c[nH]c2c(OCC(=O)O)cccc12)NC[C@H](O)c1cccc(Cl)c1 [Compound A, [3-[(2R)-[[(2R)-(3-chlorophenyl)-2-hydroxyethyl]amino]propyl]-1H-indol-7-yleoxy]acetic acid] | Not detected | Not detected | 0.031% | 0.063% | 0.091% | 0.136%
apparently lowered | 85.1% | 75.5% | 70.7% | CNC[C@H](O)[C@@H](O)[C@H](O)[C@H](O)CO [meglumine] | – | – | – | – | – | –

Reference: patent US20050267222A1, “Stabilized composition” (DAINIPPON PHARMACEUTICAL CO. LTD., priority 2002, published 2005)
